Assay [1] addresses Sodium-dependent dopamine transporter (Rattus norvegicus, UniProt P23977). In words: In vitro inhibition of [3H]dopamine uptake in rat brain synaptosomes. The class given is subcellular.
Assay [2] deals with Norepinephrine transporter (Rattus norvegicus, UniProt Q9WTR4). The experiment in a line: In vitro inhibition of [3H]norepinephrine uptake in rat brain synaptosomes. The format is subcellular.
Assay [3] concerns Rattus norvegicus. The experiment in a line: Percent reduction of blood pressure in spontaneously hypertensive rat after 10 min at intraperitoneal administration of 5 mg/kg. The format is functional.
The target of assay [4] is T1, Adrenergic receptor alpha-1 (Rattus norvegicus, UniProt P15823+P23944+P43140).
T1 sequence (P15823 whole entry): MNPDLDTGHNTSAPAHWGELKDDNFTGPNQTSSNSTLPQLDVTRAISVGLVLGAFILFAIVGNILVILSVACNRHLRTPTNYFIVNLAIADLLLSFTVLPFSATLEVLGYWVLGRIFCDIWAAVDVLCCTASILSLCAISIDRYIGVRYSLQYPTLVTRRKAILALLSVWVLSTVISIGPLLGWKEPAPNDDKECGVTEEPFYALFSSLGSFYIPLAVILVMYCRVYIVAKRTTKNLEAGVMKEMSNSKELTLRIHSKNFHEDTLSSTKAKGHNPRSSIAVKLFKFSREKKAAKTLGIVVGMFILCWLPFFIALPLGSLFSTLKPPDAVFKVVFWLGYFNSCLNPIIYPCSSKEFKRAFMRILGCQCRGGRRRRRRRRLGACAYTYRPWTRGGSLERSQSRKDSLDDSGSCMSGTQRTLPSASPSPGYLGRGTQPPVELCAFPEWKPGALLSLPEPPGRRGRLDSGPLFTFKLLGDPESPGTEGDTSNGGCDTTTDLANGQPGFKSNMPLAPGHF
T1 sequence (P23944 whole entry): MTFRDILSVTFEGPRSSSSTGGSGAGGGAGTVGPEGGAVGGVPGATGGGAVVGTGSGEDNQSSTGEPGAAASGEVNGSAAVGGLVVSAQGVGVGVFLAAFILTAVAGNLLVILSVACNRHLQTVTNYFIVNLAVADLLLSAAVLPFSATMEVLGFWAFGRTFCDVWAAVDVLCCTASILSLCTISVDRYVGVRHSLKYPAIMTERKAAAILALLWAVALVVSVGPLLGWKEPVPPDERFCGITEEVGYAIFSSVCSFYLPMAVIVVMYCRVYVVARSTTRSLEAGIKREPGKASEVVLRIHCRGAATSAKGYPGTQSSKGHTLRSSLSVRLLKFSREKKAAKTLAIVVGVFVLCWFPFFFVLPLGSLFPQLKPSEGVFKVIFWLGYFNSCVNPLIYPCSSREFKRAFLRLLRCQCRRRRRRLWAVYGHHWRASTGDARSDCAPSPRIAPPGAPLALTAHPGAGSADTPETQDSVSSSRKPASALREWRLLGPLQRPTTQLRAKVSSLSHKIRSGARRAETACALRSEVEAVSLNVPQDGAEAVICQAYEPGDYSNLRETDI
T1 sequence (P43140 whole entry): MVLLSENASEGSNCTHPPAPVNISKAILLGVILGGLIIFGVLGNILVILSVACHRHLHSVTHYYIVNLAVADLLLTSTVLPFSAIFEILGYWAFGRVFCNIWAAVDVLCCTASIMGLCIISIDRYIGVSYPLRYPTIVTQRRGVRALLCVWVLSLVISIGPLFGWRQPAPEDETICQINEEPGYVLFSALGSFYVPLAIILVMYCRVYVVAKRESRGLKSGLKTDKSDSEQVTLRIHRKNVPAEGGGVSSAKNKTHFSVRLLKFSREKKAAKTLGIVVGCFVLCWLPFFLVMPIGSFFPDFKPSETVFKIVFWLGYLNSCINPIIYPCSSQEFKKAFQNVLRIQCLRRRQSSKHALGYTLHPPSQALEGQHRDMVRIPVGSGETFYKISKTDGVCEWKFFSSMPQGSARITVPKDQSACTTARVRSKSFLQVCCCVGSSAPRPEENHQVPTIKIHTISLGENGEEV
In words: Inhibition of [3H]prazosin binding to alpha-1 adrenergic receptor from rat cortical membranes. The format is cell membranes, Membrane.

The species named for assay [5] is Mus musculus. The experiment in a line: Inhibition of methyl phenidate induced stereotyped gnawing in mice. The format is functional.
The species entered for assay [6] is Rattus norvegicus. In words: Inhibition of L-5-HTP (L-5-hydroxytryptophan) induced head twitches in rat. The class given is functional.
Assay [7] deals with Sodium-dependent serotonin transporter (Rattus norvegicus, UniProt P31652). The experiment in a line: In vitro inhibition of [3H]5-HT transporter uptake in rat brain synaptosomes. The class given is subcellular.
Sequence of Sodium-dependent serotonin transporter (P31652 whole entry): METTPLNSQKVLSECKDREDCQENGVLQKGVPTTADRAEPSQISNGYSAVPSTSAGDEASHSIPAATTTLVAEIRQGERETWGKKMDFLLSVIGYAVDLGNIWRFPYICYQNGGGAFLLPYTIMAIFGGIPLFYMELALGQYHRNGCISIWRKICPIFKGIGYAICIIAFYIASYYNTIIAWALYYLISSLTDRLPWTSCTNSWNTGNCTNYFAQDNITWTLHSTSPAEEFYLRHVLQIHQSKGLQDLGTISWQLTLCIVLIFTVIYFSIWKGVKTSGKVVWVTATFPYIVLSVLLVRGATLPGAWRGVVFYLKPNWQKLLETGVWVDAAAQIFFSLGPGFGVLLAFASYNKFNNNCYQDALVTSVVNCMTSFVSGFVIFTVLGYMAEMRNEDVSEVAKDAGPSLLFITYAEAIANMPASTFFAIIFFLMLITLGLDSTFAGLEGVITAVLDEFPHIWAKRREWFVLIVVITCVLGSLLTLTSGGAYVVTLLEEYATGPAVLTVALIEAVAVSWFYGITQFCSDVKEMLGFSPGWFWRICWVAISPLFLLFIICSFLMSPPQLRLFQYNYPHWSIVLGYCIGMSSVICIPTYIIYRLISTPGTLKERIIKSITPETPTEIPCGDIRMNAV
In assay [8] the test system is Rattus norvegicus. In words: Inhibition of 5-HT induced pressor response in pithed rats, after intravenous administration of 0.02 mg/kg. The format is functional.
In assay [9] the test system is Rattus norvegicus. In words: Inhibition of phenylephrine induced pressor response in pithed rats (following i.v. administration of […]). The class given is functional. To be noted: route intravenous.
Assay [10] concerns the target Serotonin 2 (5-HT2) receptor (Rattus norvegicus, UniProt P30994+P08909+P14842). In words: Inhibition of [3H]spiperone binding to 5-hydroxytryptamine 2 receptor from rat cortical membranes. The format is cell membranes, Membrane.
Assay [11] has as its target D(2) dopamine receptor (Rattus norvegicus, UniProt P61169). In words: Inhibition of [3H]spiperone binding to Dopamine receptor D2 from rat striatal membranes. The class given is cell membranes, Membrane.
Assay [12] relates to Rattus norvegicus. In words: Percent reduction of systolic arterial blood pressure(SAP) in spontaneously hypertensive rat after 10 min at intraperitoneal administration of 5 mg/kg. The class given is functional.
Assay [13] has as its system Rattus norvegicus. The experiment in a line: Inhibition of 5-HT induced pressor response in pithed rats, after intravenous administration, activity is expressed as ED50. The class given is functional.
The subject of assay [14] is Rattus norvegicus. The experiment in a line: Inhibition of 5-HT induced pressor response in pithed rats, after intravenous administration. The class given is functional.
Assay [15] is filed under the species Rattus norvegicus. In words: Ratio of phenylephrine ED50/ 5-HT ED50. The class given is functional.
Assay [16] deals with Rattus norvegicus. The experiment in a line: Percent reduction of diastolic arterial blood pressure(DAP) in spontaneously hypertensive rat after 10 min at intraperitoneal administration of 5 mg/kg. The class given is functional.
[17] abbreviates: Rattus norvegicus, read-out: ED50.

Sequence of Norepinephrine transporter (Q9WTR4 whole entry): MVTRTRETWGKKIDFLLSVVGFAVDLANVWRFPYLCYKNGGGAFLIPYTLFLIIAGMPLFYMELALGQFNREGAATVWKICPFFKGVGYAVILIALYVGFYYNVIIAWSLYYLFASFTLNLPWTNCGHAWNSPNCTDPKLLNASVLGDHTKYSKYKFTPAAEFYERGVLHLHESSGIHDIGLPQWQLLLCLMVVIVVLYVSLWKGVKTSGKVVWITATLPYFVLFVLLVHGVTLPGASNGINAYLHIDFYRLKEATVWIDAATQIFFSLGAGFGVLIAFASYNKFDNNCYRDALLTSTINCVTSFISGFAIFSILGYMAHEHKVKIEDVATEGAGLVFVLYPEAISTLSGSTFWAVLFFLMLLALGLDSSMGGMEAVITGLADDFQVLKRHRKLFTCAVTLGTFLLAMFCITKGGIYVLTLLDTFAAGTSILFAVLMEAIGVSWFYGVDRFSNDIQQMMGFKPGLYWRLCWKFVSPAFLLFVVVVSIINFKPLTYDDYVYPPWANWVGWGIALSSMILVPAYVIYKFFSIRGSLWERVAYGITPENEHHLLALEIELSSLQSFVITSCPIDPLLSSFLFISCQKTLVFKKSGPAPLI
Sequence of Sodium-dependent dopamine transporter (P23977 whole entry): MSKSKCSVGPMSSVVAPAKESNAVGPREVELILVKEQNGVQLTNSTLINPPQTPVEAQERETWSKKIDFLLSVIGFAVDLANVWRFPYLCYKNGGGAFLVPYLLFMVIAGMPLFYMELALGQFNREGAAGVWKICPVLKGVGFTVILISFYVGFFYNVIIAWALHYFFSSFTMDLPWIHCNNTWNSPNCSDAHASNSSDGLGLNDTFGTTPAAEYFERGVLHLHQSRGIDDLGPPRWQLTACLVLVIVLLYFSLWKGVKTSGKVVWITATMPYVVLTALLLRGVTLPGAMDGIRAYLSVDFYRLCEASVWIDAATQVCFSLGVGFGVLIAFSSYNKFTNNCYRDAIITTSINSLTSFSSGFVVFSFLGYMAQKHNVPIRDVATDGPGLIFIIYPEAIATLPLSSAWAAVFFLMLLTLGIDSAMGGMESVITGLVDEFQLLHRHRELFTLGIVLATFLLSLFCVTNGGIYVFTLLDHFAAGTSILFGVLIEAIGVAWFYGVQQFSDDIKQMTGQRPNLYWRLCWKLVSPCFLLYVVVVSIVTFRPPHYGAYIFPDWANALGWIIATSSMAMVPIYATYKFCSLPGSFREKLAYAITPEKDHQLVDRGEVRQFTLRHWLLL
Sequence of D(2) dopamine receptor (P61169 whole entry): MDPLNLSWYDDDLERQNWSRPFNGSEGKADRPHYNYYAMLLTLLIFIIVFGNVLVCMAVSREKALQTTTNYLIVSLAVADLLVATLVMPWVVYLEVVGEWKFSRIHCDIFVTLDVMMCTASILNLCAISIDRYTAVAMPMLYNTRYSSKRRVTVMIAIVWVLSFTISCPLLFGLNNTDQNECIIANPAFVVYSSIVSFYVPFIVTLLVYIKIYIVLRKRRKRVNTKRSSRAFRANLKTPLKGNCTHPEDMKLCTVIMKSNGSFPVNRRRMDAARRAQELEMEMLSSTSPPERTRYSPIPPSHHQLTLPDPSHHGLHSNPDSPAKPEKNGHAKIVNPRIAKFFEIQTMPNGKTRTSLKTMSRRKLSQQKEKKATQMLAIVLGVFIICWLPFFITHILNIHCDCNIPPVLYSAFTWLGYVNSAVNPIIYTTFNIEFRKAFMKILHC

Broadly, the IC50 is the concentration at which inhibition is half-maximal. Read a high IC50 as weaker potency. `CN1CCN([C@@H]2C[C@@H](c3ccc(F)cc3)c3ccc(F)cc32)CC1`: the IC50 in [1] came out at 1700 nM; in [2] it was 12000 nM; in assay [4], 9.3 nM; in assay [7], 3900 nM; in assay [10], 4.9 nM. In addition, the Reduction in [3] is given as -28%. Moreover, the ED50 is 2.5 µmol/kg in [5] and 0.13 µmol/kg in assay [6] (setting [17]). In addition, the Change in assay [8] was -79%; in [9], -48%.
Consider `Fc1ccc([C@@H]2C[C@@H](N3CCNCC3)c3ccccc32)cc1.O=C(O)/C=C\C(=O)O.O=C(O)/C=C\C(=O)O`, for which the IC50 in assay [1] stood at 280 nM; in [2], 450 nM; in [11], 0.58 µM; in assay [4] it was 37 nM; in [7], 42 nM; in [10], 18 nM. Besides, the results for the Reduction in assay [12] and in assay [16] were -25% and -31%, respectively. Further, the ED50 in [13] was 8.3 µmol/kg; in assay [5] it was over 76 µmol/kg; in assay [14] it was 0.1 µmol/kg; in assay [6] it was 1.7 µmol/kg. For the same molecule, the Ratio in [15] was determined as 83. Besides, the results for the Change in assay [8] and in [9] were -40% and 10%, respectively.
For `O.O=C1NCCN1CCN1CCN([C@H]2C[C@H](c3ccc(F)cc3)c3ccccc32)CC1`, the IC50 in assay [1] turned out to be 140 nM; in [2], 69 nM; in assay [11] it was 13 µM; in [4], 540 nM; in assay [7], 9700 nM; in assay [10], 570 nM. In addition, the Reduction in [3] was 3%. Further, the ED50 in [5] was over 97 µmol/kg; in assay [14], 2.7 µmol/kg; in [6] (setting [17]), over 97 µmol/kg. Further, the Change in assay [8] was -11%; in assay [9], 53%.
For the molecule `O=C1NCCN1CCN1CCN([C@@H]2C[C@@H](c3ccc(F)cc3)c3ccccc32)CC1` (stereo in doubt; (+)2) [IRINDALONE], the IC50 in assay [1] was determined as 25000 nM; in [2] it was 22000 nM; in assay [4], 26 nM; in [7], 14000 nM; in [10] it was 3.4 nM. The Reduction in assay [3] (5 mg/kg) is reported as -48%. For the same molecule, the ED50 is 0.77 µmol/kg in assay [13], over 72 µmol/kg in assay [5], 0.0045 µmol/kg in [14] and 0.56 µM/kg in [6]. For the same molecule, the Ratio in assay [15] is reported as 171. Besides, the figures for the Change in [8] (0.02 mg/kg) and in [9] ([…]) were -85% and -42%, respectively.
For `CN1CCN([C@H]2C[C@H](c3ccc(F)cc3)c3ccc(F)cc32)CC1`, the IC50 in [1] was determined as 81 nM; in assay [2], 28 nM; in [4], 85 nM; in [7] it was 610 nM; in [10] it was 43 nM. The Reduction in [3] is -5%. The ED50 was found to be 42 µmol/kg in assay [5] and 0.49 µmol/kg in [6] (setting [17]). Besides, the Change in assay [8] is recorded as -43%; in assay [9], 5%.
Take `Fc1ccc([C@H]2C[C@H](N3CCNCC3)c3ccccc32)cc1.O=C(O)/C=C\C(=O)O.O=C(O)/C=C\C(=O)O`: the IC50 in [1] stood at 220 nM; in assay [2], 140 nM; in assay [11] it was 8.5 µM; in assay [4], 540 nM; in assay [7] it was 400 nM; in [10], 180 nM. For the same molecule, the Reduction in assay [3] is given as -2%. Further, the ED50 is over 76 µmol/kg in assay [5] and 13 µmol/kg in assay [6] (setting [17]). In addition, the Change is -3% in assay [8] and 41% in [9].
Turning to `O=C(O)/C=C\C(=O)O.O=C(O)/C=C\C(=O)O.O=C1NCCN1CCN1CCN([C@@H]2C[C@@H](c3ccc(F)cc3)c3ccc(F)cc32)CC1`, the IC50 was determined as 5700 nM in assay [1]; 2500 nM in [2]; 0.046 µM in assay [11]; 10 nM in [4]; 720 nM in assay [7]; 4.3 nM in assay [10]. Moreover, the Reduction in [12] is on record as -24%; in assay [16], -31%. The ED50 in [13] is 1.4 µmol/kg; in assay [14], 0.01 µmol/kg; in assay [6] it was 0.096 µmol/kg. Further, in assay [15], the Ratio was found to be 140.
Regarding `O=C(O)/C=C\C(=O)O.O=C(O)/C=C\C(=O)O.O=C1NCCN1CCN1CCN([C@H]2C[C@H](c3ccc(F)cc3)c3ccc(F)cc32)CC1`, the IC50 is 67 nM in assay [1]; 17 nM in [2]; 4.5 µM in assay [11]; 900 nM in assay [4]; 2200 nM in assay [7]; 320 nM in assay [10]. In addition, the Increase in assay [12] is recorded as 6%; in [16], 4%. The ED50 was over 61 µmol/kg in assay [5], 0.93 µmol/kg in [14] and 20 µmol/kg in assay [6]. Besides, the Change in assay [8] was found to be 2%; in assay [9], 11%.
With `O=C1NCCN1CCN1CCN([C@@H]2C[C@@H](c3ccc(F)cc3)c3ccccc32)CC1` (stereo in doubt; 27) [IRINDALONE], the IC50 is 100 nM in assay [1]; 44 nM in assay [2]; 4.6 µM in assay [11]; 670 nM in assay [4]; over 100000 nM in assay [7]; 520 nM in assay [10]. In addition, the Reduction in assay [3] (5 mg/kg) is listed as -3%. Further, in [6], the ED50 was over 196 µM/kg. The Change in assay [8] (0.02 mg/kg) is on record as -3%; in [9] ([…]), 33%.
